Measured values reported in patent publication US10793892B2, “Method for detecting the presence of expanded spectrum β-lactamase-producing bacteria in a sample” (INSERM (INSTITUT NATIONAL DE LA SANTE ET DE LA RECHERCHE …, priority 2011, dated 2020).

How the values were obtained:
E. aerogenes = assay: Susceptibility testing, MIC by Etest; format: cell-based, Enterobacter aerogenes
Procedure: (§1) Susceptibility testing was performed by determining MIC values using the Etest® (AB bioMérieux; Solna, Sweden) on Mueller-Hinton agar plates at 37° C. and results were recorded according to US guidelines (CLSI), as updated in 2012 (2). The breakpoints for cefotaxime are susceptible (S)≤1 and resistant (R)≥4 μg/ml, and for ceftazidime S≤4 and R≥16 μg/ml.

E. cloacae = assay: Susceptibility testing, MIC by Etest; format: cell-based, Enterobacter cloacae
Procedure: as §1

M. morganii = assay: Susceptibility testing, MIC by Etest; format: cell-based, Morganella morganii; details: M. morganii Wild-type, chromosome-encoded cephalosporinase, n=2
Procedure: as §1

P. mirabilis = assay: Susceptibility testing, MIC by Etest; format: cell-based, Proteus mirabilis
Procedure: as §1

K. pneumoniae = assay: Susceptibility testing, MIC by Etest; format: cell-based, Klebsiella pneumoniae
Procedure: as §1

E. coli = assay: Susceptibility testing, MIC by Etest; format: cell-based, Escherichia coli
Procedure: as §1

C. freundii = assay: Susceptibility testing, MIC by Etest; format: cell-based, Citrobacter freundii
Procedure: as §1

P. stuartii = assay: Susceptibility testing, MIC by Etest; format: cell-based, Providencia stuartii; details: P. stuartii TEM-24, n=1
Procedure: as §1

K. oxytoca = assay: Susceptibility testing, MIC by Etest; format: cell-based, Klebsiella oxytoca; details: K. oxytoca Wild-type penicillinase, n=1
Procedure: as §1

S. marcescens = assay: Susceptibility testing, MIC by Etest; format: cell-based, Serratia marcescens; details: S. marcescens Wild-type, chromosome-encoded cephalosporinase, n=2
Procedure: as §1

S. enterica = assay: Susceptibility testing, MIC by Etest; format: cell-based, Salmonella enterica
Procedure: as §1

S. ficaria = assay: Susceptibility testing, MIC by Etest; format: cell-based; details: S. ficaria Wild-type, chromosome-encoded cephalosporinase, n=1
Procedure: as §1

E. sakazakii = assay: Susceptibility testing, MIC by Etest; format: cell-based; details: overexpressed chromosome-encoded cephalosporinase, n=1
Procedure: as §1

C. brakii = assay: Susceptibility testing, MIC by Etest; format: cell-based; details: C. brakii Wild-type, chromosome-encoded cephalosporinase, n=1
Procedure: as §1

Enterobacteriaceae = format: biochemical; details: all CTX-M producers (n=147); tazobactam added to cefotaxime well
Procedure: Strains were isolated on Mueller-Hinton agar (Biorad, Marnes-la-Coquette, France) and incubated at 37° C. for 16 h to 24 h before performing the NDP rapid ESBL test as follows. One calibrated inoculated loop (10 μl) of the tested strain was resuspended in 150 μl of 20 mM Tris-HCl lysis buffer previously distributed in Microbead tubes (Ultraclean Microbial DNA isolation kit Bead Tubes, MO BIO Laboratories, Carlsbad, USA). Mechanical lysis of bacteria was performed by strong agitation of Microbead tubes using a vortex adapter (MO BIO Laboratories) for 30 min at room temperature. This bacterial suspension was centrifuged at 10,000×g at room temperature for 5 min. Thirty μl of the supernatant was mixed in a well of a 96-well tray with 100 μl of a 1 ml solution made of 3 mg of purified cefotaxime sodium salt (Sigma-Aldrich, Saint-Quentin-Fallavier, France) in a pH 7.8 phenol red solution. […] The phenol red solution was made by taking 2 ml of a concentrated pH 8 phenol solution (made from a mixture of phenol red 0.5% in distilled water) to which 16.6 ml of distilled water was added. The pH value was then adjusted to a 7.8 value by adding drops of a 1 N NaOH solution. Mixture of the phenol red solution and the enzymatic suspension being tested was incubated at 37° C. for 30 min. Similarly, culture extracts were analyzed in wells containing cefotaxime and tazobactam (4 mg/ml). […]

CC(C)(O/N=C(\C(=O)N[C@@H]1C(=O)N2C(C(=O)[O-])=C(C[n+]3ccccc3)CS[C@H]12)c1csc(N)n1)C(=O)O [CAZ, ceftazidime]
MICs range (E. aerogenes; E. aerogenes TEM-121, n=1): >32 µg/mL | MICs range (E. aerogenes; E. aerogenes Wild-type, chromosome-encoded cephalosporinase, n=1): 0.25 µg/mL | MICs range (E. cloacae; E. cloacae CTX-M-14, n=1): 8 µg/mL | MICs range (E. cloacae; E. cloacae CTX-M-15, n=17): 2 to 16 µg/mL | MICs range (E. cloacae; E. cloacae GES-5, n=1): >32 µg/mL | MICs range (E. cloacae; E. cloacae PER-1, n=1): >32 µg/mL | MICs range (E. cloacae; E. cloacae SHV-5, n=1): >32 µg/mL | MICs range (E. cloacae; E. cloacae TEM-3, n=2): >16 µg/mL | MICs range (E. cloacae; E. cloacae VEB-1, n=1): >32 µg/mL | MICs range (E. cloacae; E. cloacae Wild-type, chromosome-encoded cephalosporinase, n=5): 0.12 to 0.38 µg/mL | MICs range (E. cloacae; E. cloacae, overexpressed chromosome-encoded cephalosporinase, n=2): >32 µg/mL | MICs range (E. cloacae; E. cloacae, overexpressed chromosome-encoded cephalosporinase, n=3): >32 µg/mL | MICs range (M. morganii): 0.09 to 1 µg/mL | MICs range (P. mirabilis; P. mirabilis ACC-1, n=1): >32 µg/mL | MICs range (P. mirabilis; P. mirabilis CTX-M-14, n=1): 0.75 µg/mL | MICs range (P. mirabilis; P. mirabilis CTX-M-15, n=1): 8 µg/mL | MICs range (P. mirabilis; P. mirabilis PER-1, n=1): >32 µg/mL | MICs range (P. mirabilis; P. mirabilis TEM-21, n=1): 4 µg/mL | MICs range (P. mirabilis; P. mirabilis TEM-52, n=1): 16 µg/mL | MICs range (K. pneumoniae; K. pneumoniae CTX-M-3, n=1): 1.5 µg/mL | MICs range (K. pneumoniae; K. pneumoniae CTX-M-14, n=3): 0.5 to 6 µg/mL | MICs range (K. pneumoniae; K. pneumoniae DHA-1, n=1): >32 µg/mL | MICs range (K. pneumoniae; K. pneumoniae DHA-2, n=1): >32 µg/mL | MICs range (K. pneumoniae; K. pneumoniae GES-1, n=1): 4 µg/mL | MICs range (K. pneumoniae; K. pneumoniae SHV-2a, n=2): 1 to 4 µg/mL | MICs range (K. pneumoniae; K. pneumoniae SHV-2a, n=4): 2 to 4 µg/mL | MICs range (K. pneumoniae; K. pneumoniae SHV-5, n=2): 16 to 32 µg/mL | MICs range (K. pneumoniae; K. pneumoniae SHV-12, n=1): 8 µg/mL | MICs range (K. pneumoniae; K. pneumoniae SHV-12, n=2): 16 to 32 µg/mL | MICs range (K. pneumoniae; K. pneumoniae SHV-28, n=3): >32 µg/mL | MICs range (K. pneumoniae; K. pneumoniae TEM-52, n=2): >32 µg/mL | MICs range (K. pneumoniae; K. pneumoniae Wild-type penicillinase, n=2): 0.03 µg/mL | MICs range (E. coli; E. coli ACC-1, n=1, first line): >32 µg/mL | MICs range (E. coli; E. coli ACC-1, n=1, second line): >32 µg/mL | MICs range (E. coli; E. coli CMY-2, n=1): >32 µg/mL | MICs range (E. coli; E. coli CTX-M-1, n=16): 0.5 to 2 µg/mL | MICs range (E. coli; E. coli CTX-M-2, n=3): 1.5 to 4 µg/mL | MICs range (E. coli; E. coli CTX-M-3, n=1): 4 µg/mL | MICs range (E. coli; E. coli CTX-M-9, n=1): 0.19 µg/mL | MICs range (E. coli; E. coli CTX-M-14, n=15): 0.5 to 4 µg/mL | MICs range (E. coli; E. coli CTX-M-15, n=46): 0.5 to 24 µg/mL | MICs range (E. coli; E. coli CTX-M-27, n=6): 0.5 to 4 µg/mL | MICs range (E. coli; E. coli CTX-M-28, n=1): 8 µg/mL | MICs range (E. coli; E. coli CTX-M-32, n=1): 6 µg/mL | MICs range (E. coli; E. coli CTX-M-97, n=1): 2 µg/mL | MICs range (E. coli; E. coli DHA-1, n=1): 1 µg/mL | MICs range (E. coli; E. coli SHV-2a, n=3): 2 to 4 µg/mL | MICs range (E. coli; E. coli SHV-3, n=1): >32 µg/mL | MICs range (E. coli; E. coli SHV-12, n=1): 8 µg/mL | MICs range (E. coli; E. coli TEM-1 penicillinase, n=5): 0.09 to 0.12 µg/mL | MICs range (E. coli; E. coli TEM-12, n=1): 8 µg/mL | MICs range (E. coli; E. coli TEM-29, n=2): 4 µg/mL | MICs range (E. coli; E. coli TEM-133, n=1): 12 µg/mL | MICs range (E. coli; E. coli VEB-1, n=1): >32 µg/mL | MICs range (E. coli; E. coli Wild-type, no resistance, n=5): 0.05 to 0.19 µg/mL | MICs range (C. freundii; C. freundii TEM-3, n=1): >16 µg/mL | MICs range (C. freundii; C. freundii Wild-type, chromosome-encoded cephalosporinase, n=1): 0.25 µg/mL | MICs range (P. stuartii): 8 µg/mL | MICs range (K. oxytoca): 0.06 µg/mL | MICs range (S. marcescens): 0.09 µg/mL | MICs range (S. enterica; S. enterica CTX-M-1, n=1): 0.75 µg/mL | MICs range (S. enterica; S. enterica Wild-type, no resistance, n=1): 0.19 µg/mL | MICs range (S. ficaria): 0.09 µg/mL | MICs range (E. sakazakii): >32 µg/mL | MICs range (C. brakii): 0.25 µg/mL

C[C@]1(Cn2ccnn2)[C@H](C(=O)O)N2C(=O)C[C@H]2S1(=O)=O [tazobactam]
color of the wells (Enterobacteriaceae): remained red
